Each block holds one molecule with its values, some of them ahead of it.
Legend:
myocardial cells [1] = assay: SOD activity (Hydroxylamine method) in hypoxia/reoxygenation injured myocardial cells; assay type: cell-based, Sprague-Dawley (SD) rat
Procedure: Myocardial cell samples were obtained from the same procedure of Example 1, the experiment groups were divided and hypoxia/reoxygenation experiments were performed on Control group, Vehicle group, SAC and analogue groups, same as the experiments in Example 1 with the same dosages and same conditions. Myocardial cells were obtained from each sample (10^6 myocardial cells/sample) from the Control group, Vehicle group, SAC and analogue groups. The cells were lysed under sterilized condition, and SOD (superoxide dismutase) activities in each sample of the cells were determined by Hydroxylamine method (a conventional method well known in the arts) using each microgram of protein per 1 milliliter reaction solution inhibits SOD activity to its 50% of original activity, in which the amount of SOD used in the reaction as standard of 1 unit of SOD activity.

H9c2 cells [2] = assay: Mn-SOD activity of H9c2 cells injured by H2O2; assay type: cell-based; details: PAG group, PAG 10^−4 mol/L
Procedure: (§1) H9c2 cells were cultured same as Example 12, the cells were then divided into the groups same as Example 12.
(§2) The cells were lysed under sterilized condition, and lipid peroxidation experiments on the samples were performed. […] The effect of SPRC could be blocked by PAG, indicating SPRC mediates its effect on H9c2 cell by way of endogenous H2S.

H9c2 cells [3] = assay: MDA content of H9c2 cells injured by H2O2; assay type: cell-based; details: PAG group, PAG 10^−4 mol/L
Procedure: as §1, §2

H9c2 cells [4] = assay: LDH leakage of H9c2 cells injured by H2O2; assay type: cell-based; details: PAG group, PAG 10^−4 mol/L
Procedure: (§3) H9c2 cells were cultured in DMEM with 10% of fetal bovine serum, 37 degree C. and 5% CO2 incubator. The monolayer culture was split at a 1:4 ratio or harvested to perform experiments when confluence was 70-80%. Adjust the density of the cells to […] and inoculate the cells on a 96 well plate.
(§4) H2O2 injury (Model) group, no SAC analogues treatment, under H2O2 200 μmol/L for 2 hours.
(§5) PAG group, PAG 10^−4/mol/L
(§6) SPRC dosage groups: SPRC 1E-7, SPRC 1E-6, SPRC 1E-5, the cell groups were treated with SPRC dosages of 10^−7 mol/L, 10^−6 mol/L, 10^−5 mol/L respectively.
(§7) SPRC dosage+PAG groups: the cell group was treated with SPRC dosages of 10^−5 mol/L and PAG 10^−4 mol/L.
The cell samples (10^6 cells/sample) from each group were lysed under sterilized condition, and LDH contents in each samples were tested by pyruvic acid production method.

H9c2 cells [5] = assay: H9c2 cell viability by MTT method after H2O2 injury; assay type: cell-based; details: PAG group, PAG 10^−4 mol/L
Procedure: as §3
Control group, no SAC analogues treatment, no H2O2 injured process.
as §4, §5, §6, §7
H9c2 cell viability was assessed by MTT method. […] PAG is able to block the effect of SPRC.

myocardial cells [6] = assay: Lipid peroxidation (MDA, TBA) in hypoxia/reoxygenation injured myocardial cells; assay type: cell-based, Sprague-Dawley (SD) rat; details: 10^−5 mol/L
Procedure: Myocardial cell samples were obtained from the same procedure of Example 1, the experiment groups were divided and hypoxia/reoxygenation experiments were performed on Control group, Vehicle group, SAC and analogue groups, same as the experiments in Example 1 with the same dosages and same conditions. Myocardial cells were obtained from each sample (10^6 myocardial cells/sample) from the Control group, Vehicle group, SAC and analogue groups. The cells were lysed under sterilized condition, and lipid peroxidation experiments on the samples were performed. Since oxygen free radical attacks poly unsaturated fatty acid in biomembrane, inducing lipid peroxidation and producing MDA (malondialdehyde). MDA can react with thiobarbituric acid (TBA), forms red product, which can be detected in spectrophotometer at 532 nm. […] The inhibition effect could be reversed by PAG.

Bcl-2 mRNA = assay: RT-PCR of Bcl-2 mRNA in left ventricle; assay type: in vivo, SD rats; details: MI rats, 50 mg/Kg/day, p>0.05
Source text: (§8) Animals were assigned and prepared the same as in Example 7, and dosages of SPRC and SAC were used the same in this example as in Example 7.
(§9) To further verify the effects of SPRC and SAC, the expressions of Bcl-2, Bax and CSE mRNA were accessed by RT-PCR (FIG. 17). An isoform of the CSE gene was detected (GenBank; access no. AY641456). The relative amounts of CSE mRNA in Left ventricular subjected to MI were increase 3.3-fold and 1.5-fold following SPRC and SAC exposure as compared to the MI group.

CSE mRNA = assay: RT-PCR of CSE mRNA in left ventricle; assay type: in vivo, SD rats; details: MI rats, 50 mg/Kg/day
Source text: as §8, §9

Bcl-2 = assay: Western blot of Bcl-2 protein in left ventricle; assay type: in vivo, SD rats; details: MI rats, 50 mg/Kg/day, p<0.01
Source text: as §8

CSE [7] = assay: Western blot of CSE protein in left ventricle; assay type: in vivo, SD rats; details: MI rats, 50 mg/Kg/day, p<0.01
Source text: as §8

rats following MI injury [8] = assay: Plasma H2S levels in rats (sham or MI); assay type: in vivo, SD rats; details: 50 mg/Kg/day intraperitoneal
Procedure: as §8
(§10) The plasma levels of H2S in each treatment group were determined since CSE mediates the endogenous production of H2S in mammals. Plasma H2S concentrations in MI group rats at 48 h after MI induction were 34.7±5.6 μM (n=8). […] Left ventricular CSE activity was analyzed in the tissue homogenates from each treatment group (n=6). CSE activity was 1.58±0.15 μmol/g protein/hr in left the ventricular tissues in MI group and 2.19±0.32 μmol/g protein/hr in the MI+SAC treated rats.

Bax = assay: Western blot of Bax protein in left ventricle; assay type: in vivo, SD rats; details: MI rats, 50 mg/Kg/day, p<0.01
Source text: as §8

rats following MI injury [9] = assay: ECG in rats following MI injury; assay type: in vivo, SD rats; details: 50 mg/Kg/day, day 10, 48 hr after the induction of MI
Procedure: (§11) SPRC and SAC were dissolved in saline (vehicle). Male SD rats (weight 200-250 g) were randomly assigned to […] treatment groups: group (1) Sham group: Sham-treated with saline (n=4), (2) Sham+SPRC group: Sham-treated with SPRC (50 mg/Kg/day) (n=4), (3) Sham+SAC group: Sham-treated with SAC (50 mg/Kg/day) (n=4), (4) MI group: MI treated with saline (n=8), (5) MI+SPRC group: MI treated with SPRC (50 mg/Kg/day) (n=8), (6) MI+SAC group: MI treated with SAC (50 mg/Kg/day) (n=8). Rats were pre-treated for seven days with each SAC analogues respectively via an intraperitoneal injection once daily before they were used for MI model studies. […] Briefly, the rats were anesthetized with 7% choral hydrate (60 mg/kg intraperitoneal injection), endotracheally intubated and mechanically ventilated with room air, respiratory rate 100 breaths/min, tidal volume 2.5 ml with a rodent ventilator (DHX-150, China). ECG was recorded in the anaesthetized animal for a period of one minute using the Animal Mflab200 amplifier (Produced in China). A left thoracotomy was performed and the third intercostal space was exposed. […] Then incisions were sutured and the chests were closed. […] Forty eight hours after the surgery, ECG was recorded for each rat in each group. […] To evaluate the effect of SPRC and SAC on MI, infarct size were measured after TTC staining (FIG. 12).

rats following MI injury [10] = assay: SOD activity in plasma of rats (sham or MI); assay type: in vivo, SD rats; details: 50 mg/Kg/day intraperitoneal
Procedure: as §8
(§12) Serum CK levels were detected with diagnostic kit (NJBI, China) according to the instructions. LDH were determined calorimetrically with a spectrophotometer. Lipid peroxidation was measured in terms of MDA content using the thiobarbituric acid (TBA) assay. […] With regard to lipid peroxidation, the levels of MDA in MI groups increased at 48 h after myocardial infarction. […] (FIG. 14)

CSE [11] = target: T1, CSE (Rattus norvegicus, UniProt P18757); assay: Left ventricular CSE activity in tissue homogenates of rats; assay type: in vivo, SD rats; details: 50 mg/Kg/day; for CSE activity: left ventricle
T1 construct: from tissue; host or cells: rat left ventricle (homogenate), myocardial infarction model
Procedure: as §8, §10
SPRC administered rats had the highest CSE activity of 2.58±0.07 μmol/g protein/hr (p<0.01) (FIG. 15B). This observation correlated with the observed increases in H2S concentrations in the same treatment groups.

rats following MI injury [12] = assay: Serum LDH in rats (sham or MI); assay type: in vivo, SD rats; details: Sham rats; 50 mg/Kg/day intraperitoneal
Procedure: as §8, §12

Bax mRNA = assay: RT-PCR of Bax mRNA in left ventricle; assay type: in vivo, SD rats; details: MI rats, 50 mg/Kg/day, p<0.05
Source text: as §8, §9

rats following MI injury [13] = assay: MDA content (TBA assay) in rats (sham or MI); assay type: in vivo, SD rats; details: Sham rats; 50 mg/Kg/day intraperitoneal
Procedure: as §8, §12

rats following MI injury [14] = assay: Infarct size after TTC staining in rats following MI injury; assay type: in vivo, SD rats; details: 50 mg/Kg/day intraperitoneal, 7 days before and 2 days after ligation, 48 h after surgery, saline 36.0±1.3%
Procedure: as §11

rats following MI injury [15] = assay: Serum CK in rats (sham or MI); assay type: in vivo, SD rats; details: Sham rats; 50 mg/Kg/day intraperitoneal
Procedure: as §8, §12

T1 sequence (P18757 whole entry): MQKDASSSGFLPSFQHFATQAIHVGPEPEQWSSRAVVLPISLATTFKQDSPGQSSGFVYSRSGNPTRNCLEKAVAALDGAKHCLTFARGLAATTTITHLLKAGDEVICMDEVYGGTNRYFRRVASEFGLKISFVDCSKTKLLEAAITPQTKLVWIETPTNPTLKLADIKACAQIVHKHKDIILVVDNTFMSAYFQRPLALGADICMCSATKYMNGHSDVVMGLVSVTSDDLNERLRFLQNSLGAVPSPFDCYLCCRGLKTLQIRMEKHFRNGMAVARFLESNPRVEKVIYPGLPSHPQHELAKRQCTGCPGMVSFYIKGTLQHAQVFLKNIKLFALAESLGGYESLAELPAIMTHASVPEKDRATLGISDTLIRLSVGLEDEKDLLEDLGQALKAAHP

SMILES: CCCCCSC[C@H](N)C(=O)O [SPEC, S-pentyl-L-cysteine]
Cu—Zn SOD activity in cytoplasm (myocardial cells [1]; 10^−5 mol/L): able to elevate | effect of PAG on elevating Cu—Zn SOD activity (myocardial cells [1]; with PAG): PAG also reversed the effect

SMILES: CCCCSC[C@H](N)C(=O)O [SBC, S-butyl-L-cysteine]
Cu—Zn SOD activity in cytoplasm (myocardial cells [1]; 10^−5 mol/L): able to elevate | effect of PAG on elevating Cu—Zn SOD activity (myocardial cells [1]; with PAG): PAG also reversed the effect

SMILES: C#CCC(N)C(=O)O (racemic) [PAG, DL-propargylglycine, reference compound]
Mn-SOD Activity (H9c2 cells [2]): 7.57 ± 0.83 U/mgprot | MDA Content (H9c2 cells [3]): 2.71 ± 0.26 nmol/mgprot | LDH Leakage (H9c2 cells [4]): 63.4 ± 1.2% | H9c2 Cell Survive (H9c2 cells [5]): 58.9 ± 1.2%

SMILES: CCCSC[C@H](N)C(=O)O [SPC, S-propyl-L-cysteine]
lipid peroxidation (MDA) (myocardial cells [6]): inhibited | Cu—Zn SOD activity in cytoplasm (myocardial cells [1]; 10^−5 mol/L): able to elevate | effect of PAG on elevating Cu—Zn SOD activity (myocardial cells [1]; with PAG): PAG also reversed the effect

SMILES: CCSC[C@H](N)C(=O)O [SEC, S-ethyl-L-cysteine]
lipid peroxidation (MDA) (myocardial cells [6]): inhibited | Mn-SOD activity in mitochondria (myocardial cells [1]; 10^−5 mol/L): able to elevate | effect of PAG on elevating Mn-SOD activity (myocardial cells [1]; with PAG): PAG also reversed

CSE activity (CSE [11]; MI rats): 2.19 ± 0.32 μM/mgprot | Left ventricular CSE activity (CSE [11]; MI rats, left ventricular tissue homogenates, MI group 1.58±0.15): 2.19±0.32 μmol/g protein/hr | CSE activity (CSE [11]; Sham rats): 2.31 ± 0.24 μM/mgprot
SMILES: C=CCSC[C@H](N)C(=O)O [SAC, S-Allyl-Cysteine]
Bcl-2 gene expression (Bcl-2 mRNA): no significant differences | relative amounts of CSE mRNA, increase as compared to the MI group (CSE mRNA): 1.5 fold | Bcl-2 protein expression (Bcl-2): up-regulated | CSE protein expression (CSE [7]): up-regulated | H2S concentration in plasma (rats following MI injury [8]; MI rats, 48 h after MI induction, 50 mg/kg/day): 61.1 ± 3.6 µM | H2S concentration in plasma (rats following MI injury [8]; Sham rats): 65.2 ± 4.4 µM | Bax protein levels (Bax): down-regulated | ST-segment elevation in ECG (rats following MI injury [9]): less elevated ST-segment | SOD (rats following MI injury [10]; MI rats, 48 h after MI): 107.1 ± 5.4 U/ml | SOD (rats following MI injury [10]; Sham rats): 159.8 ± 4.8 U/ml | LDH (rats following MI injury [12]): 2599 ± 212 U/L | Bax gene expression (Bax mRNA): down regulated | MDA (rats following MI injury [13]): 3.57 ± 0.31 nmol/mL | infarct size/total area of myocardium (rats following MI injury [14]): 24.9±1.9% | CK (rats following MI injury [15]): 0.250 ± 0.019 U/ml

Reference: patent US8623919B2, “Method of synthesizing S-allyl-cysteine analogues and their therapeutic application in treating myocardial infarction” (Fudan University, priority 2007, dated 2014)
